Test results published in ChEMBL document CHEMBL3046070, “New N-arylamino biquinoline derivatives: microwave-assisted synthesis and their antimicrobial activities” (2013).
Converted amounts (≈) assume the structure as drawn.

Columns and labels:
Type in all cases: functional
[1] = test system: Salmonella typhi; experiment: Antibacterial activity against Salmonella enterica subsp. enterica serovar Typhi MTCC 98 assessed as growth inhibition after overnight incubation by NCCLS broth microdilution method
[2] = test system: Streptococcus pneumoniae; experiment: Antibacterial activity against Streptococcus pneumoniae MTCC 1936 assessed as growth inhibition after overnight incubation by NCCLS broth microdilution method
[3] = test system: Candida albicans; experiment: Antifungal activity against Candida albicans MTCC 227 assessed as growth inhibition after overnight incubation by NCCLS broth microdilution method
[4] = test system: Clostridium tetani; experiment: Antibacterial activity against Clostridium tetani MTCC 449 assessed as growth inhibition after overnight incubation by NCCLS broth microdilution method
[5] = test system: Bacillus subtilis; experiment: Antibacterial activity against Bacillus subtilis MTCC 441 assessed as growth inhibition after overnight incubation by NCCLS broth microdilution method
[6] = test system: Aspergillus fumigatus; experiment: Antifungal activity against Aspergillus fumigatus MTCC 3008 assessed as growth inhibition after overnight incubation by NCCLS broth microdilution method
[7] = test system: Escherichia coli; experiment: Antibacterial activity against Escherichia coli MTCC 443 assessed as growth inhibition after overnight incubation by NCCLS broth microdilution method
[8] = test system: Vibrio cholerae; experiment: Antibacterial activity against Vibrio cholerae MTCC 3906 assessed as growth inhibition after overnight incubation by NCCLS broth microdilution method

Compound	MIC [1] [µg/mL]	MIC [2] [µg/mL]	MIC [3] [µg/mL]	MIC [4] [µg/mL]	MIC [5] [µg/mL]	MIC [6] [µg/mL]	MIC [7] [µg/mL]	MIC [8] [µg/mL]
CCOC(=O)C1=C(N)N(Nc2ccc(Br)cc2)C2=C(C(=O)CC(C)(C)C2)C1c1cc2ccccc2nc1Cl (centres undefined)	50 (≈ 83.9 µM)	25 (≈ 42 µM)	> 1000	500 (≈ 839 µM)	250 (≈ 420 µM)	> 1000	100 (≈ 168 µM)	500 (≈ 839 µM)
CCn1cc(C(=O)O)c(=O)c2cc(F)c(N3CCNCC3)cc21 [NORFLOXACIN]	10 (≈ 31.3 µM)	10 (≈ 31.3 µM)		50 (≈ 157 µM)	100 (≈ 313 µM)		10 (≈ 31.3 µM)	10 (≈ 31.3 µM)
CCOC(=O)C1=C(N)N(Nc2ccc(OC)cc2)C2=C(C(=O)CC(C)(C)C2)C1c1cc2cc(C)ccc2nc1Cl (centres undefined)	100 (≈ 178 µM)	125 (≈ 223 µM)	250 (≈ 446 µM)	250 (≈ 446 µM)	250 (≈ 446 µM)	500 (≈ 891 µM)	250 (≈ 446 µM)	250 (≈ 446 µM)
CCOC(=O)C1=C(N)N(Nc2ccc(F)cc2)C2=C(C(=O)CC(C)(C)C2)C1c1cc2cc(C)ccc2nc1Cl (centres undefined)	200 (≈ 364 µM)	200 (≈ 364 µM)	100 (≈ 182 µM)	100 (≈ 182 µM)	200 (≈ 364 µM)	> 1000	100 (≈ 182 µM)	100 (≈ 182 µM)
CCOC(=O)C1=C(N)N(Nc2ccc(C)cc2)C2=C(C(=O)CC(C)(C)C2)C1c1cc2cc(C)ccc2nc1Cl (centres undefined)	500 (≈ 917 µM)	250 (≈ 459 µM)	1000 (≈ 1830 µM)	500 (≈ 917 µM)	250 (≈ 459 µM)	> 1000	250 (≈ 459 µM)	500 (≈ 917 µM)
CCOC(=O)C1=C(N)N(Nc2ccc(OC)cc2)C2=C(C(=O)CC(C)(C)C2)C1c1cc2ccccc2nc1Cl (centres undefined)	200 (≈ 366 µM)	200 (≈ 366 µM)	250 (≈ 457 µM)	100 (≈ 183 µM)	250 (≈ 457 µM)	500 (≈ 914 µM)	50 (≈ 91.4 µM)	200 (≈ 366 µM)
CCOC(=O)C1=C(N)N(Nc2ccc(C)cc2)C2=C(C(=O)CC(C)(C)C2)C1c1cc2cc(OC)ccc2nc1Cl (centres undefined)	62.5 (≈ 111 µM)	100 (≈ 178 µM)	500 (≈ 891 µM)	125 (≈ 223 µM)	200 (≈ 356 µM)	> 1000	125 (≈ 223 µM)	500 (≈ 891 µM)
CCOC(=O)C1=C(N)N(Nc2ccc(F)cc2)C2=C(C(=O)CC(C)(C)C2)C1c1cc2cc(Cl)ccc2nc1Cl (centres undefined)	250 (≈ 439 µM)	500 (≈ 878 µM)	1000 (≈ 1760 µM)	250 (≈ 439 µM)	500 (≈ 878 µM)	> 1000	200 (≈ 351 µM)	500 (≈ 878 µM)
COC1=CC(=O)C[C@@H](C)[C@]12Oc1c(Cl)c(OC)cc(OC)c1C2=O [GRISEOFULVIN]			500 (≈ 1420 µM)			100 (≈ 283 µM)		
CCOC(=O)C1=C(N)N(Nc2ccc(Cl)cc2)C2=C(C(=O)CC(C)(C)C2)C1c1cc2ccccc2nc1Cl (centres undefined)	250 (≈ 453 µM)	200 (≈ 363 µM)	1000 (≈ 1810 µM)	125 (≈ 227 µM)	200 (≈ 363 µM)	250 (≈ 453 µM)	200 (≈ 363 µM)	250 (≈ 453 µM)
CCOC(=O)C1=C(N)N(Nc2ccc(Cl)cc2)C2=C(C(=O)CC(C)(C)C2)C1c1cc2cc(OC)ccc2nc1Cl (centres undefined)	100 (≈ 172 µM)	250 (≈ 430 µM)	500 (≈ 860 µM)	250 (≈ 430 µM)	250 (≈ 430 µM)	> 1000	100 (≈ 172 µM)	250 (≈ 430 µM)
O=C(N[C@H](CO)[C@H](O)c1ccc([N+](=O)[O-])cc1)C(Cl)Cl [CHLORAMPHENICOL]	50 (≈ 155 µM)	50 (≈ 155 µM)		50 (≈ 155 µM)	50 (≈ 155 µM)		50 (≈ 155 µM)	50 (≈ 155 µM)
NYSTATIN			100			100		
CCOC(=O)C1=C(N)N(Nc2ccc(C)cc2)C2=C(C(=O)CC(C)(C)C2)C1c1cc2ccccc2nc1Cl (centres undefined)	250 (≈ 471 µM)	250 (≈ 471 µM)	> 1000	500 (≈ 942 µM)	500 (≈ 942 µM)	> 1000	250 (≈ 471 µM)	125 (≈ 235 µM)
CC1(C)S[C@@H]2[C@H](NC(=O)[C@H](N)c3ccccc3)C(=O)N2[C@H]1C(=O)O [AMPICILLIN]	100 (≈ 286 µM)	100 (≈ 286 µM)		250 (≈ 715 µM)	250 (≈ 715 µM)		100 (≈ 286 µM)	100 (≈ 286 µM)
O=C(O)c1cn(C2CC2)c2cc(N3CCNCC3)c(F)cc2c1=O [CIPROFLOXACIN]	25 (≈ 75.4 µM)	50 (≈ 151 µM)					25 (≈ 75.4 µM)	25 (≈ 75.4 µM)
CCOC(=O)C1=C(N)N(Nc2ccc(OC)cc2)C2=C(C(=O)CC(C)(C)C2)C1c1cc2cc(Cl)ccc2nc1Cl (centres undefined)	250 (≈ 430 µM)	500 (≈ 860 µM)	1000 (≈ 1720 µM)	250 (≈ 430 µM)	500 (≈ 860 µM)	> 1000	250 (≈ 430 µM)	250 (≈ 430 µM)
CCOC(=O)C1=C(N)N(Nc2ccc(C)cc2)C2=C(C(=O)CC(C)(C)C2)C1c1cc2cc(Cl)ccc2nc1Cl (centres undefined)	500 (≈ 884 µM)	100 (≈ 177 µM)	250 (≈ 442 µM)	500 (≈ 884 µM)	250 (≈ 442 µM)	> 1000	500 (≈ 884 µM)	500 (≈ 884 µM)
GENTAMICIN	5	0.5		5	1		0.05	5
CCOC(=O)C1=C(N)N(Nc2ccc(Br)cc2)C2=C(C(=O)CC(C)(C)C2)C1c1cc2cc(OC)ccc2nc1Cl (centres undefined)	200 (≈ 320 µM)	250 (≈ 399 µM)	> 1000	200 (≈ 320 µM)	250 (≈ 399 µM)	500 (≈ 799 µM)	200 (≈ 320 µM)	200 (≈ 320 µM)
CCOC(=O)C1=C(N)N(Nc2ccc(Br)cc2)C2=C(C(=O)CC(C)(C)C2)C1c1cc2cc(Cl)ccc2nc1Cl (centres undefined)	100 (≈ 159 µM)	200 (≈ 317 µM)	500 (≈ 793 µM)	250 (≈ 397 µM)	200 (≈ 317 µM)	1000 (≈ 1590 µM)	200 (≈ 317 µM)	250 (≈ 397 µM)
CCOC(=O)C1=C(N)N(Nc2ccccc2)C2=C(C(=O)CC(C)(C)C2)C1c1cc2ccccc2nc1Cl (centres undefined)	200 (≈ 387 µM)	200 (≈ 387 µM)	250 (≈ 484 µM)	500 (≈ 967 µM)	200 (≈ 387 µM)	> 1000	50 (≈ 96.7 µM)	500 (≈ 967 µM)
CCOC(=O)C1=C(N)N(Nc2ccccc2)C2=C(C(=O)CC(C)(C)C2)C1c1cc2cc(Cl)ccc2nc1Cl (centres undefined)	250 (≈ 453 µM)	100 (≈ 181 µM)	1000 (≈ 1810 µM)	200 (≈ 363 µM)	200 (≈ 363 µM)	250 (≈ 453 µM)	125 (≈ 227 µM)	100 (≈ 181 µM)
CCOC(=O)C1=C(N)N(Nc2ccc(Br)cc2)C2=C(C(=O)CC(C)(C)C2)C1c1cc2cc(C)ccc2nc1Cl (centres undefined)	500 (≈ 820 µM)	250 (≈ 410 µM)	500 (≈ 820 µM)	500 (≈ 820 µM)	100 (≈ 164 µM)	1000 (≈ 1640 µM)	500 (≈ 820 µM)	500 (≈ 820 µM)
CCOC(=O)C1=C(N)N(Nc2ccccc2)C2=C(C(=O)CC(C)(C)C2)C1c1cc2cc(OC)ccc2nc1Cl (centres undefined)	250 (≈ 457 µM)	200 (≈ 366 µM)	> 1000	250 (≈ 457 µM)	200 (≈ 366 µM)	> 1000	250 (≈ 457 µM)	250 (≈ 457 µM)
CCOC(=O)C1=C(N)N(Nc2ccc(OC)cc2)C2=C(C(=O)CC(C)(C)C2)C1c1cc2cc(OC)ccc2nc1Cl (centres undefined)	200 (≈ 347 µM)	250 (≈ 433 µM)	1000 (≈ 1730 µM)	250 (≈ 433 µM)	250 (≈ 433 µM)	500 (≈ 866 µM)	200 (≈ 347 µM)	250 (≈ 433 µM)
